# According to PubChem BioAssay AID179 (DTP/NCI, 2004):
# Values joined by “and” are separate entries in the source; they are usually repeats but may differ in a detail not shown here. Equal entries are not always repeated. Active and inactive are the calls of the source.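 How the source made its calls: active means compounds giving half or more protection of infected cells from virus-caused growth loss, again on retest; inactive means the rest.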 *1 amine or outer side, *2 acyl side, *3 side chain or, on linkers, in order; H or OH if unused. Where a SMILES comes first, the peptide text is derived from it. Bridges are numbered along the chain shown (N, C = ends). [ ]: non-standard residue; d: D form. The star is where a group is joined. X22 = CC(C)C(C)C(C(=O)[*:2])N(C)[*:1]; Picolinoyl(3-OH) = O=C(c1ncccc1O)*; NMePhg = CN[CH](C(=O)O)c1ccccc1; Hyp = O=C(O)[CH]1C[CH](O)CN1; Sar = CNCC(=O)O
# Test system: CEM cells HIV-1 protection, formazan growth assay
# Assay: NCI AIDS Antiviral Assay
# Conditions: for IC50: measured here: growth of uninfected CEM cells
# Method in brief: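 Soluble formazan readout of cell growth; CEM cells ± HIV-1; 5 drug concs. ≥50% protection → retest; ≥50% again = moderately active; reproducible 100% = confirmed active.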
Structure (SMILES),outcome,EC50,IC50
CCOC(=O)c1ccc(NC(=O)O/N=C(/Cl)CC)cc1,inactive,,
Cc1c(C)c(C)c(-n2c(=O)n(C)c(=O)n2C(C)(C)C)c(C)c1C,,> 200 µM,3.31 µM
CCOC(=O)/C(=N/Nc1ccccc1)N1C(=S)C=C(C)NN(C)C1=S,,> 200 µM,> 200 µM
O=[N+]([O-])c1ccc(S(=O)(=O)c2ccccc2)c([N+](=O)[O-])c1,inactive,,
COC(=O)c1cc2c(o1)Sc1ccccc1NC2=O,,> 200 µM,> 200 µM
COC(=O)c1cc(C(=CC(=O)O)c2cc(Cl)c(OC)c(C(=O)OC)c2)cc(Cl)c1OC,,> 200 µM,95.5 µM
CC(C)(C)C#COC(=O)c1ccccc1,,> 251 µM,> 251 µM
CCOC(=O)C1=C(C)NC(C)=C(C(=O)OCCNC(=O)c2ccc(N=[N+]=[N-])cc2)C1c1ccccc1C(F)(F)F (configuration not stated),,> 200 µM,10.5 µM
C[C@@]12C[C@@H](c3ccccc3O1)N1CCSC1=N2,inactive,,
COc1cc(Nc2nc3cc(C)ccc3nc2-c2ccccc2)cc(OC)c1OC,,> 200 µM,34.7 µM
c1ccc2c3nnc(c2c1)SCCSCCSc1nnc(c2ccccc12)SCCSCCS3,,> 200 µM,> 200 µM
O=C(CC(=O)n1nc(-c2ccccc2)c(N=Nc2ccc([N+](=O)[O-])cc2)c1-c1ccccc1)Nc1ccc(Cl)cc1,,> 45.7 µM,> 45.7 µM
CC1Nc2c(ccc3ncccc23)C(=O)N1Nc1ccccc1 (configuration not stated),,> 83.2 µM,60.3 µM
CC(C)CC1NC(=O)C(NC(=O)c2ncccc2O)C(C)OC(=O)C(c2ccccc2)N(C)C(=O)C(C)NC(=O)C(C(C)C(C)C)N(C)C(=O)CN(C)C(=O)C2CC(O)CN2C1=O (configuration not stated) ({Picolinoyl(3-OH)}-TL[Hyp][Sar][X22]A[NMePhg]; ester 1-C; configuration not given here),inactive,,
CC(=O)CC(C)=O.CC(=O)CC(C)=O.CC(=O)CC(C)=O.CC(=O)CC(C)=O.[Zr],inactive,,
CC(=O)OC1C[C@@]2(C)C(CC[C@@H]2C(C)=O)[C@@H]2CC=C3C[C@@H](O)CC[C@]3(C)C12 (some centres not stated),inactive,,
C=C1CN(S(=O)(=O)c2ccc(C)cc2)CCCN(C2CCCC2)CCCN(S(=O)(=O)c2ccc(C)cc2)C1,,> 200 µM,4.07 µM
CCC1=C(C)/C(=C/c2[nH]c(C(Br)Br)c(CC)c2C)N=C1C(Br)Br,inactive,,
ClC/C=C\C[N+]12CN3CN(CN(C3)C1)C2,,> 200 µM,24 µM
c1ccc2[nH]c(-c3nc4ccccc4s3)nc2c1,,> 15.1 µM,5.37 µM
COc1cc(C(=O)NC(CCN)(c2ccccc2)c2ccccc2)cc(OC)c1OC,,> 200 µM,67.6 µM
Cc1cn(C2CC(n3ncnn3)C(CO)O2)c(=O)[nH]c1=O (configuration not stated),inactive,,

Structure (SMILES),outcome,EC50,IC50
O=C1NC(=O)C(C(=O)C(=O)Nc2cccc(C(F)(F)F)c2)C(=O)N1,,> 39.8 µM,> 39.8 µM
O=[N+]([O-])C=C1c2ccccc2-c2ccccc21,inactive,,
NC(=S)N/C=C\c1nc2ccccc2[nH]c1=O,,> 200 µM,> 200 µM
Cc1[nH]cc2c1C(c1ccccc1)=NCC(=O)N2,,> 200 µM,> 200 µM
O=C(/C=C/c1ccc(/C=C/C(=O)c2ccc(O)cc2)cc1)c1ccc(O)cc1,,> 200 µM,26.9 µM
NC(CSS(=O)(=O)O)=NCCCCN=C(N)CSS(=O)(=O)O,,> 200 µM,> 200 µM
c1ccc2c(c1)Sc1ccccc1N2CCCN1c2ccccc2Sc2ccccc21,,> 50.1 µM,> 50.1 µM
CCc1nnc(CC)n1NCCCC(=O)O,,> 200 µM,> 200 µM
CN(C(=O)C12C3C4C1C1C2C3C41C(=O)N(C)C(C)(C)C)C(C)(C)C (configuration not stated),,> 30.2 µM,> 30.2 µM
NNC(N)=Nc1cccc2ccccc12,,> 200 µM,> 200 µM
COc1cc(C(=O)n2c(=O)oc(=O)c3cc([N+](=O)[O-])ccc32)cc(OC)c1OC,,> 200 µM,> 200 µM
C[Si](C)(C)OC1(C#N)C2C3CC4C2C(=O)C2C4C3C21 (configuration not stated),inactive,,
N#C/C=C(/NC(=O)Nc1ccccc1)N1CCCC1,,> 200 µM,> 200 µM
CC(=O)OC1SCC2OC(=O)OC21 (configuration not stated),,> 1230 µM,> 1230 µM
O[C@@H]1[C@H]2CC(OCc3ccccc3)C[C@H]2C[C@@H]1O (some centres not stated),,> 1000 µM,> 1000 µM
COc1c(C)c(C/C=C(\C)CCCCO[Si](c2ccccc2)(c2ccccc2)C(C)(C)C)c(OC)c(OC)c1OC,,> 200 µM,93.3 µM
O=C(/C(=C/c1cccs1)c1ccccc1)c1ccccc1,,> 200 µM,> 200 µM
C[C@]12CCC3(CC1C(=O)CC[C@@H]2OCc1ccccc1)OCCO3 (some centres not stated),active,,
CCCCCCC(C)c1ccc2c(c1)C(=O)c1nc3ccncc3c(=O)n1-2 (configuration not stated),,> 200 µM,0.955 µM
CC12CCC(=O)N1c1cncnc1N2 (configuration not stated),,> 1320 µM,> 1320 µM
CN(C)CCCNC(=O)c1cc(NC(=O)c2cc(NC(=O)c3cc(NC(=O)c4cccc(C(=O)Nc5cc(C(=O)Nc6cc(C(=O)Nc7cc(C(=O)NCCCN(C)C)n(C)c7)n(C)c6)n(C)c5)n4)cn3C)cn2C)cn1C,,> 100 µM,> 100 µM
O=[N+]([O-])c1ccc[c]([Sb](=[O])([OH])[OH])c1,,> 398 µM,> 200 µM

Structure (SMILES),outcome,EC50,IC50
c1ccc2nn(C3CCCCO3)nc2c1 (configuration not stated),,> 200 µM,> 200 µM
Oc1ccc(C2O[C@H](c3ccc(O)cc3)C(c3cc(O)cc(O)c3)C2c2cc(O)cc3c2C(c2cc(O)cc4c2C(c2cc(O)cc(O)c2)[C@H](c2ccc(O)cc2)O4)[C@@H](c2ccc(O)cc2)O3)cc1 (some centres not stated),,36.3 µM,214 µM
O=C(CC1C(=O)Nc2ccccc2S1(=O)=O)Nc1ccc(Cl)cc1 (configuration not stated),,> 5.5 µM,> 5.5 µM
Cc1cc(C)nc(NS(=O)(=O)c2ccc(NC(=O)c3cccnc3Nc3cccc(Cl)c3)cc2)n1,inactive,,
CCCCCCN(C(=O)Oc1ccccc1)C(C#N)c1ccccc1 (configuration not stated),,> 200 µM,> 200 µM
O=[N+]([O-])c1ccc(C[N+]23CCN(CC2)CC3)cc1,inactive,,
CC(C)n1c(=O)n(-c2ccccc2)n(C(C)(C)C)c1=O,,> 200 µM,> 100 µM
O=C(/C=C/c1ccc[nH]1)c1ccccc1,,> 347 µM,120 µM
c1ccc(/C2=N\OCCCOc3ccccc32)cc1,,> 200 µM,> 200 µM
COc1ccc2nc3ccccc3c(NCCC[N+](C)(C)[O-])c2c1[N+](=O)[O-],,> 200 µM,14.1 µM
O=C(CBr)N1CCC2(CC1)SSC1(CCN(C(=O)CBr)CC1)S2,,> 200 µM,0.575 µM
CC(=O)OCC1OC(n2c(S)c(C#N)c(-c3ccccc3)c(C#N)c2=O)C(OC(C)=O)C(OC(C)=O)C1OC(C)=O (configuration not stated),,> 200 µM,> 200 µM and 21.9 µM
COc1ccc(NC(=O)CC2SC(=Nc3ccc(Cl)cc3C)NC2=O)c([N+](=O)[O-])c1 (configuration not stated),,> 398 µM,> 398 µM
CCC(C)C(C1=C(O)c2ccccc2C(=O)C1=O)C1=C(O)c2ccccc2C(=O)C1=O (configuration not stated),,> 200 µM,87.1 µM
CN(C)c1ccc(N=O)c(O)c1,,> 200 µM,8.71 µM
CC(=O)[CH-]C(C)=O.[CH2-]C.[CH2-]C.[Tl+3],,> 501 µM,> 501 µM
O=[N+]([O-])c1ccc(C2=NOC(c3ccccc3F)N2C23CC4CC(CC(C4)C2)C3)cc1 (configuration not stated),,195 µM,> 200 µM
COC(=O)c1[nH]cnc1O,,> 200 µM,> 200 µM
CCCCOP(=O)(OCCCC)OP(=O)(OCCCC)OCCCC,,> 200 µM,> 200 µM
COc1ccc(C2CC(C)=Nc3c([nH]c(=S)[nH]c3=O)N2)cc1 (configuration not stated),,> 16.6 µM,> 16.6 µM
Cc1cccc(CNc2ncnc3[nH]ncc23)c1,,> 200 µM,> 200 µM
CC(=O)NC1CC2Oc3ccc(C)cc3C(C)(O2)C1O (configuration not stated),inactive,,

Structure (SMILES),outcome,EC50,IC50
NC1=NC(=O)CS1,,> 2140 µM,> 2140 µM
O=S(=O)(N=S(c1ccc(Cl)cc1)c1ccc(Cl)cc1)c1ccccc1,,> 24.5 µM,> 24.5 µM
N#C/C(=C/NC(=S)Nc1ccc(Cl)c(Cl)c1)C(N)=O,,> 200 µM,38 µM
COc1ccc(Oc2c(OC)cc(NCc3ccc(CN)cc3)c3ncccc23)cc1,,> 200 µM,27.5 µM
CCOC(=O)/C=C\[C@H]1OC(C)(C)O[C@H]1[C@H](O)[C@H]1COC(C)(C)O1,,> 20 µM,11.2 µM
O=C(/C=C/c1ccc([N+](=O)[O-])cc1)c1ccccc1,,> 4.07 µM,> 4.07 µM
COC(=O)C(C)(C)C(OP(=S)(N(C)C)N(C)C)=C(C)C,,> 22.4 µM,> 22.4 µM
CC(=O)Nc1cc2c(cc1O)CC[C@@H]1[C@@H]2CC[C@]2(C)[C@@H](O)CC[C@@H]12,,> 200 µM,20.9 µM
COc1ccc(/C=C2\CCS(=O)(=O)c3ccccc3C2=O)cc1OC,,> 100 µM,11.2 µM
CC[n+]1c(/C=C/c2cc(C(=O)OC)n3c2sc2ccccc23)sc2ccccc21,,> 200 µM,11 µM
Oc1c(C2=NNC(c3ccc(Cl)cc3Cl)C2)ccc2ccccc12 (configuration not stated),,> 200 µM,32.4 µM
COC(O)C(=O)c1ccc2c(c1)CC1(C2)Cc2cc3c(cc2C1=O)CCC3 (configuration not stated),,> 200 µM,32.4 µM
CN(C)CCSc1ccc(-c2ccc(-c3ccc(SCCN(C)C)cc3)nn2)cc1,,6.92 µM,8.13 µM
Cc1cccc(-n2cc(C#N)c3c(C)cc(C)nc32)c1,,> 100 µM,> 100 µM
Cc1ccc(NC(=O)CC(=O)N2N=C(N(CCC#N)c3cccc(C)c3)CC2c2ccccc2)cc1 (configuration not stated),,> 75.9 µM,> 75.9 µM
CCOC(=O)/C(=C\c1cccs1)P(=O)(OCC)OCC,,> 794 µM,41.7 µM
CCn1c(=O)c(N=O)c(N)n(CC(C)C)c1=O,,> 200 µM,174 µM
Cc1ccc2c(c1)-c1[nH]c3ccccc3c1CS2,inactive,,
N#Cc1c(N)c2c(c(-c3ccccc3)c1-c1ccccc1)C(=O)N(Nc1ccccc1)C2=O,,> 200 µM,27.5 µM
C=C(C[N+](C)(C)C)N/N=C/c1oc(-c2ccc(OC)c(OC)c2)c(-c2ccc(OC)c(OC)c2)c1[N+](=O)[O-],,> 12.9 µM,> 12.9 µM
